Active and inactive are the calls of the source. No cut-off for these calls is given here.
Columns and labels:
[1] = Aqueous stability of compound; type: physicochemical; settings: buffer
RAW264.7 [2] = experiment: Antiinflammatory activity in mouse RAW264.7 cells assessed as inhibition of LPS-induced IL6 release at 5 to 10 uM preincubated for 1 hr followed by LPS stimulation and measured after 24 hrs by ELISA; type: functional, cell-based; settings: dose 5-10 µM, time 25.0 hrs
RAW264.7 [3] = experiment: Antiinflammatory activity in mouse RAW264.7 cells assessed as inhibition of LPS-induced TNFalpha release at 5 to 10 uM preincubated for 1 hr followed by LPS stimulation and measured after 4 hrs by ELISA; type: functional, cell-based; settings: dose 5-10 µM, time 5.0 hrs
RAW264.7 [4] = experiment: Cytotoxicity against mouse RAW264.7 cells assessed as reduction cell viability at 5 uM measured after 24 hrs by Celltiter-glo assay; type: cell-based; settings: raw264.7, 24 h
[5] = GSH reactivity in PBS assessed as isomerization measured up to 24 hrs by HPLC-MS analysis; type: ADME; settings: buffer
RAW-Blue [6] = experiment: Inhibition of LPS-induced NF-kappaB activity in mouse RAW-Blue cells assessed as reduction in SEAP reporter activity at 5 to 20 uM preincubated for 1 hr followed by LPS stimulation and measured after 24 hrs by SEAP reporter gene assay; type: cell-based; settings: dose 5-20 µM, time 25.0 hrs
[7] = GSH reactivity in PBS assessed as GSH adduct formation by measuring half life by HPLC-MS analysis; type: ADME
[8] = GSH reactivity in PBS assessed as GSH adduct formation measured up to 8 hrs by HPLC-MS analysis; type: ADME; settings: buffer
RAW-Blue [9] = experiment: Inhibition of LPS-induced NF-kappaB activity in mouse RAW-Blue cells assessed as reduction in SEAP reporter activity at 5 to 20 uM preincubated for 1 hr followed by LPS stimulation and measured after 8 hrs by SEAP reporter gene assay; type: cell-based; settings: dose 5-20 µM, time 9.0 hrs
RAW264.7 [10] = experiment: Cytotoxicity against BSO-treated mouse RAW264.7 cells assessed as reduction cell viability measured after 24 hrs by Celltiter-glo assay; type: cell-based; settings: raw264.7, 24 h, dose 10-20 µM
RAW264.7 [11] = experiment: Antiinflammatory activity in 24 hrs NAC-pretreated mouse RAW264.7 cells assessed as inhibition of LPS-induced TNFalpha release at 10 uM preincubated for 1 hr followed by LPS stimulation and measured after 4 hrs by ELISA relative to control; type: functional; settings: time 5 hrs
RAW264.7 [12] = experiment: Activation of JNK phosphorylation in BSO-treated mouse RAW264.7 cells at 50 uM measured after 4 hrs by Western blot analysis; settings: filed as activator
RAW264.7 [13] = experiment: Activation of JNK phosphorylation in mouse RAW264.7 cells at 50 uM measured after 4 hrs by Western blot analysis; type: cell-based; settings: filed as activator
RAW-Blue [14] = experiment: Inhibition of LPS-induced NF-kappaB activity in mouse RAW-Blue cells assessed as reduction in SEAP reporter activity at 5 to 20 uM preincubated for 1 hr followed by LPS stimulation and measured after 8 to 24 hrs by SEAP reporter gene assay; type: cell-based; settings: dose 5-20 µM, time 25.0 hrs
RAW264.7 [15] = experiment: Antiinflammatory activity in 4 hrs NAC-pretreated mouse RAW264.7 cells assessed as inhibition of LPS-induced TNFalpha release at 10 uM preincubated for 1 hr followed by LPS stimulation and measured after 4 hrs by ELISA relative to control; type: functional; settings: time 5 hrs
RAW-Blue [16] = experiment: Activation of NF-kappaB activity in mouse RAW-Blue cells assessed as increase in SEAP reporter activity at 5 to 20 uM measured after 24 hrs by SEAP reporter gene assay; type: cell-based; settings: filed as activator, dose 5-20 µM
RAW264.7 [17] = experiment: Cytotoxicity against mouse RAW264.7 cells assessed as reduction cell viability at 20 uM measured after 24 hrs by Celltiter-glo assay; type: cell-based; settings: raw264.7, 24 h
[18] = Cytotoxicity against human L02 cells assessed as reduction in cell viability measured after 24 hrs by Celltiter-glo assay; type: cell-based
[19] = Cytotoxicity against HEK293 cells assessed as reduction in cell viability measured after 24 hrs by Celltiter-glo assay; type: cell-based; settings: human
RAW264.7 [20] = experiment: Antiinflammatory activity in BSO-treated mouse RAW264.7 cells assessed as inhibition of LPS-induced TNFalpha release at 2.5 to 10 uM preincubated for 1 hr followed by LPS stimulation and measured after 4 hrs by ELISA; type: functional, cell-based; settings: dose 2.5-10 µM, time 5.0 hrs
RAW-Blue [21] = experiment: Activation of NF-kappaB activity in mouse RAW-Blue cells assessed as increase in SEAP reporter activity at 30 uM measured after 24 hrs in presence of p38 inhibitor SB203580 by SEAP reporter gene assay; type: cell-based
RAW264.7 [22] = experiment: Antiinflammatory activity in 2 hrs NAC-pretreated mouse RAW264.7 cells assessed as inhibition of LPS-induced TNFalpha release at 10 uM preincubated for 1 hr followed by LPS stimulation and measured after 4 hrs by ELISA relative to control; type: functional; settings: time 5 hrs
[23] = target: T1, Nuclear factor NF-kappa-B p105 subunit (Homo sapiens) (UniProt P19838); experiment: Inhibition of DNA binding activity of human NF-kappaB p50 at 200 uM measured after 1 hr by ELISA
T1 sequence (whole entry): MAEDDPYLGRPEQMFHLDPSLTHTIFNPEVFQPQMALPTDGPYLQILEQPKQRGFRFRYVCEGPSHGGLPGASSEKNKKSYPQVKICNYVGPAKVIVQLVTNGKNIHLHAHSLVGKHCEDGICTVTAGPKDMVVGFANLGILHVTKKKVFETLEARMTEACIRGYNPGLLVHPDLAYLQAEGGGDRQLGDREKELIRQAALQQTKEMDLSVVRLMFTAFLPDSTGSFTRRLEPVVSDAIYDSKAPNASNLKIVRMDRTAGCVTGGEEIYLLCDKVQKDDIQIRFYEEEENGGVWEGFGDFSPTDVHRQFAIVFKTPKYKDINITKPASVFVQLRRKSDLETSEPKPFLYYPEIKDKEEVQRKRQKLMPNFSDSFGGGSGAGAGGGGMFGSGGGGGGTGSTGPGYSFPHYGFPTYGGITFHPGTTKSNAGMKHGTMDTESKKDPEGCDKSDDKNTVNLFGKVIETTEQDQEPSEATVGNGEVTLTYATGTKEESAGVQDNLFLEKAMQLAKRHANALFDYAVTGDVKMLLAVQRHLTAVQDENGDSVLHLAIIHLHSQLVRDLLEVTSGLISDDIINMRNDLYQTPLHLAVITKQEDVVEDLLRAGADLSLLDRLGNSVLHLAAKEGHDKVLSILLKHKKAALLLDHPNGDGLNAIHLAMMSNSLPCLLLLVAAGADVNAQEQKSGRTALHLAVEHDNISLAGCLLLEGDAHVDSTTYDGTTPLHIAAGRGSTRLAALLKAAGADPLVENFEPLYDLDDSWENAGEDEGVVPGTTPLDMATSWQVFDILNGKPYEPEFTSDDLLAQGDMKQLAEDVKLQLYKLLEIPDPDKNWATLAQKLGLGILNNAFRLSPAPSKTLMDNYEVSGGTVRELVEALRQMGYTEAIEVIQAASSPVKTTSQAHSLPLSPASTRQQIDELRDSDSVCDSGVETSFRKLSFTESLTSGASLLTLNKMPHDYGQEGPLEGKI

[24] = GSH reactivity assessed as GSH adduct formation by measuring reduction in intracellular GSH level at 20 uM measured after 2 hrs by cell-based monochlorobimane fluorometric method; type: ADME; set-up: scale not given: the % may be the effect or the level left
RAW264.7 [25] = experiment: Cytotoxicity against mouse RAW264.7 cells assessed as reduction cell viability at 5 to 50 uM measured after 24 hrs by Celltiter-glo assay; type: cell-based; settings: raw264.7, 24 h, dose 5-50 µM

| Structure (SMILES) | Stabilty [1] | inhibition (RAW264.7 [2]) | inhibition (RAW264.7 [3]) | also measured |
| --- | --- | --- | --- | --- |
| C=C1CC[C@@H]2[C@](C)(CO)[C@H](O)CC[C@@]2(C)[C@@H]1C/C=C1/C(=O)Nc2ccc(F)cc21 | Stable | inactive |  |  |
| C=C1CC[C@@H]2[C@](C)(CO)[C@H](O)CC[C@@]2(C)[C@@H]1C/C=C/C(=O)c1ccccc1 | Stable | Active | Active | Activity (RAW264.7 [4]): Toxic; Drug metabolism [5]: Metabolite_Notdetected; inhibition (RAW-Blue [6]): Active; t1/2 [7]: 2.12 h; K [8]: 6.036e-05 M⁻¹ s⁻¹; inhibition (RAW-Blue [9]): Active |
| C=C1CC[C@@H]2[C@](C)(CO)[C@H](O)CC[C@@]2(C)[C@@H]1C/C=C/C(=O)OCC | Stable | inactive | inactive |  |
| C=C(CO)C(=O)OC |  | inactive | inactive |  |
| C=C1CC[C@@H]2[C@](C)(CO)[C@H](O)CC[C@@]2(C)[C@@H]1C/C=C1/C(=O)OC[C@H]1O [ANDROGRAPHOLIDE] | Stable | Active | Active | CC50 (RAW264.7 [10]): 10 µM; inhibition at 10 µM (RAW264.7 [11]): 62%; Activity (RAW264.7 [12]): Active; Activity (RAW264.7 [13]): Active; inhibition (RAW-Blue [14]): inactive; inhibition at 10 µM (RAW264.7 [15]): 30%; Activity (RAW-Blue [16]): Active; Activity (RAW264.7 [17]): Toxic; CC50 at 24 h [18]: 14.7 µM; CC50 at 24 h [19]: 26.2 µM; inhibition (RAW264.7 [20]): Active; t1/2 [7]: 5.46 h; K [8]: 2.44e-05 M⁻¹ s⁻¹; Activity (RAW-Blue [21]): inactive; inhibition at 10 µM (RAW264.7 [22]): 17% |
| CC(=O)CCC[C@@H]1[C@@H](C)CC[C@@H]2[C@](C)(CO)[C@H](O)CC[C@]21C |  |  |  | inhibition [23]: inactive |
| C=C1CC[C@@H]2[C@](C)(CO)[C@H](O)CC[C@@]2(C)[C@@H]1CC=C(C#N)C#N | Unstable |  |  |  |
| C=C1CC[C@@H]2[C@](C)(CO)[C@H](O)CC[C@@]2(C)[C@@H]1C/C=C1\C(=O)Nc2ccc(F)cc21 | Stable | inactive |  |  |
| C=C1CC[C@@H]2[C@](C)(CO)[C@H](O)CC[C@@]2(C)[C@@H]1C/C=C1\C[C@@H](OC)OC1=O | Stable | inactive |  |  |
| C=C1CC[C@@H]2[C@](C)(CO)[C@H](O)CC[C@@]2(C)[C@@H]1C/C=C1\CCOC1=O | Stable | inactive | inactive | CC50 (RAW264.7 [10]): > 30 µM |
| C=C1CC[C@@H]2[C@](C)(CO)[C@H](O)CC[C@@]2(C)[C@@H]1C/C=C1\C[C@H](OC)OC1=O | Stable | inactive |  |  |
| C=C1CC[C@@H]2[C@](C)(CO)[C@H](O)CC[C@@]2(C)[C@@H]1C/C=C\C#N | Stable | inactive |  |  |
| C=C1CC[C@@H]2[C@](C)(CO)[C@H](O)CC[C@@]2(C)[C@@H]1C/C=C1\C=COC1=O | Stable | Active | Active | Activity [24]: > 70%; Activity (RAW-Blue [16]): Active; inhibition (RAW-Blue [6]): inactive; t1/2 [7]: 0.05 h; K [8]: 0.003539 M⁻¹ s⁻¹; inhibition (RAW-Blue [9]): Active; Activity (RAW-Blue [21]): inactive |
| C=C1CC[C@@H]2[C@](C)(CO)[C@H](O)CC[C@@]2(C)[C@@H]1C/C=C1/C(=O)Nc2ccccc21 | Stable | inactive | inactive |  |
| C=C1CC[C@@H]2[C@](C)(CO)[C@H](O)CC[C@@]2(C)[C@@H]1C/C=C1\C(=O)OC[C@H]1O | Stable |  | inactive | inhibition (RAW-Blue [14]): inactive |
| C=C1CC[C@@H]2[C@](C)(CO)[C@H](O)CC[C@@]2(C)[C@@H]1C/C=C1\NC(=O)NC1=O | Stable | inactive |  | Activity (RAW264.7 [25]): Non-Toxic |
| C=C1CC[C@@H]2[C@](C)(CO)[C@H](O)CC[C@@]2(C)[C@@H]1C/C=C1\SC(=S)NC1=O | Stable | inactive | inactive | Activity (RAW264.7 [25]): Non-Toxic |
| C[C@H]1CC[C@@H]2[C@](C)(CO)[C@H](O)CC[C@@]2(C)[C@@H]1CC[C@@H]1C(=O)OC[C@H]1O | Stable | inactive | inactive |  |
| C=C1CC[C@@H]2[C@](C)(CO)[C@H](O)CC[C@@]2(C)[C@@H]1C/C=C1/CCOC1=O | Stable | inactive |  |  |
| C=C1CC[C@@H]2[C@](C)(CO)[C@H](O)CC[C@@]2(C)[C@@H]1C/C=C1\C(=O)Nc2ccccc21 | Stable | inactive |  |  |
| C=C1CC[C@@H]2[C@](C)(CO)[C@H](O)CC[C@@]2(C)[C@@H]1C/C=C1\SC(=O)NC1=O | Stable | inactive |  | Activity (RAW264.7 [25]): Non-Toxic |
| C=C1CC[C@@H]2[C@](C)(CO)[C@H](O)CC[C@@]2(C)[C@@H]1CC=O | Stable | inactive | inactive |  |
| C=C1CC[C@@H]2[C@](C)(CO)[C@H](O)CC[C@@]2(C)[C@@H]1C/C=C/C#N | Stable | inactive | inactive |  |
| C=C1CC[C@@H]2[C@](C)(CO)[C@H](O)CC[C@@]2(C)[C@@H]1/C=C/C1=CCOC1=O | Stable | inactive | inactive |  |
| C=C1CC[C@@H]2[C@](C)(CO)[C@H](O)CC[C@@]2(C)[C@@H]1C/C=C/C(C)O (some centres not stated) |  |  |  | inhibition [23]: inactive |
| C=C1CC[C@@H]2[C@](C)(CO)[C@H](O)CC[C@@]2(C)[C@@H]1C/C=C1/C=COC1=O | Stable | Active | Active | Activity [24]: > 70%; inhibition (RAW-Blue [6]): inactive; inhibition (RAW-Blue [9]): Active |

Source: ChEMBL document CHEMBL4765394, “From irreversible to reversible covalent inhibitors: Harnessing the andrographolide scaffold for anti-inflammatory action” (Eur J Med Chem, 2020)
